Entries after “also recorded” stand apart in the source; their conditions may differ.

The assay concerns immature rat uterus. Briefly: 3-day uterine model: uterine wet weight in immature rats. The following applies: for Effect on ethinyl estradiol induced uterine wet weight increase (in words): 100 μg in combination with 0.5 μg ethinyl estradiol; for Effect on ethinyl estradiol induced uterine wet weight increase (in words) / Effect on raloxifene induced uterine stimulation (in words): three days; for % increase weight (vs. control) / Mean Wet Weight: 3 days; for Effect on raloxifene induced uterine stimulation (in words): co-administered with raloxifene (10 μg; 1 μmg [sic], ~0.2 mg/kg), 1-100 μg, 0.2 mg/kg; for Agonist effect on uterine wet weight (in words) / Increase in uterine wet weight over control: compound alone; for Agonist effect on uterine wet weight (in words): 10 and 100 μg/rat, three days of treatment, 1-way ANOVA; for Increase in uterine wet weight over control: for TSE-424 the highest increase seen.

The mark [1] stands for this setting: Experiment No. 1, 10 μg alone, s.c.
[2] abbreviates: Experiment No. 1, 100 μg + EE (0.5 μg ethinyl estradiol), s.c.
The mark [3] stands for this setting: Experiment No. 1, 100 μg alone, s.c.
The mark [4] stands for this setting: Experiment No. 2, 1 μg + Raloxifene 10 μg.
The mark [5] stands for this setting: Experiment No. 2, 10 μg + Raloxifene 10 μg.
Where [6] appears, read: Experiment No. 2, 10 μg alone, s.c.
[7] abbreviates: Experiment No. 2, 50 μg + Raloxifene 10 μg.
Setting [8] is: Experiment No. 2, 100 μg + Raloxifene 10 μg.
Where [9] appears, read: Experiment No. 2, 100 μg alone, s.c.
[10] abbreviates: Experiment No. 4, 10 μg alone, s.c.
Where [11] appears, read: Experiment No. 4, 100 μg alone, s.c.
[12] abbreviates: Experiment No. 3, 10 μg alone, s.c.
Setting [13] is: Experiment No. 3, 100 μg + EE (0.5 μg ethinyl estradiol), s.c.
Where [14] appears, read: Experiment No. 3, 100 μg alone, s.c.
[15] abbreviates: Experiment No. 4, 1 μg + Raloxifene 10 μg.
Setting [16] is: Experiment No. 4, 10 μg + Raloxifene 10 μg.
Setting [17] is: Experiment No. 4, 50 μg + Raloxifene 10 μg.
[18] abbreviates: Experiment No. 4, 100 μg + Raloxifene 10 μg.

`Cc1c(-c2ccc(O)cc2)n(Cc2ccc(OCCN3CCCCC3)cc2)c2ccc(O)cc12` [ERA-923, 2-(4-Hydroxy-phenyl)-3-methyl-1-(4-(2-piperidin-1-yl-ethoxy)-benzyl]-1H-indol-5-ol]: the “Effect on ethinyl estradiol induced uterine wet weight increase (in words)” value is given as “reduced ethinyl estradiol induced wet weight increases to control values; also recorded: reduced the increased wet weight stimulated by ethinyl estradiol to control”, the “Effect on raloxifene induced uterine stimulation (in words)” value is on record as “antagonized the uterine stimulation; also recorded: reduced to control values or less at all doses except for 1 μg” and the “Agonist effect on uterine wet weight (in words)” value (from here on “Agonist effect”) is recorded as “neither ERA-923 nor TSE-424 statistically increased uterine wet weight; also recorded: neither ERA-923 (Experiment No.1) nor TSE-424 (Experiment No. 3) treatments resulted in a statistical increase in uterine wet weight”. Also, under setting [1], the “% increase weight (vs. control)” value is 129.8% and the “Mean Wet Weight” value came to 39.9 mg. Moreover, under setting [2], the “% increase weight (vs. control)” value is 79.1% and the “Mean Wet Weight” value was found to be 24.3 mg. Further, under setting [3], the “% increase weight (vs. control)” value came to 89.3% and the “Mean Wet Weight” value was 27.5 mg. Also, under setting [4], the “% increase weight (vs. control)” value is recorded as 144.4% and the “Mean Wet Weight” value was 38.7 mg. For the same compound, under setting [5], the “% increase weight (vs. control)” value is on record as 100.8% and the “Mean Wet Weight” value was 27.0 mg. Moreover, under setting [6], the “% increase weight (vs. control)” value was determined as 93.5% and the “Mean Wet Weight” value worked out at 25.1 mg. Under setting [7], the “% increase weight (vs. control)” value is given as 81.6% and the “Mean Wet Weight” value was determined as 21.9 mg. Besides, under setting [8], the “% increase weight (vs. control)” value was determined as 81.6% and the “Mean Wet Weight” value was found to be 21.9 mg. Moreover, under setting [9], the “% increase weight (vs. control)” value was 75.1% and the “Mean Wet Weight” value is 20.1 mg.

`C#C[C@]1(O)CC[C@H]2[C@@H]3CCc4cc(O)ccc4[C@H]3CC[C@@]21C` [Ethinyl estradiol, 17α-ethinyl estradiol, reference compound]: the “% increase weight (vs. control)” value worked out at 205.7% (Experiment No. 1, 0.5 μg s.c.); 317.3% (Experiment No. 2, 0.5 μg s.c.); 262.1% (Experiment No. 3, 0.5 μg s.c.); 406.4% (Experiment No. 4, 0.5 μg s.c.). Moreover, the “Mean Wet Weight” value (Experiment No. 1, 0.5 μg s.c.) was determined as 63.2 mg; the “Mean Wet Weight” value (Experiment No. 2, 0.5 μg s.c.) came out at 85.1 mg; the “Mean Wet Weight” value (Experiment No. 3, 0.5 μg s.c.) turned out to be 94.1 mg; the “Mean Wet Weight” value (Experiment No. 4, 0.5 μg s.c.) is 98.7 mg.

Consider `O=C(c1ccc(OCCN2CCCCC2)cc1)c1c(-c2ccc(O)cc2)sc2cc(O)ccc12` [Raloxifene, raloxifene, reference compound], for which the “Agonist effect” value is recorded as “statistically increased uterine wet weights at both tested doses” and the “Increase in uterine wet weight over control” value is 75-85%. Under setting [6], the “% increase weight (vs. control)” value amounted to 172.4% and the “Mean Wet Weight” value amounted to 46.2 mg. In addition, under setting [9], the “% increase weight (vs. control)” value worked out at 145.8% and the “Mean Wet Weight” value stood at 39.1 mg. Besides, under setting [10], the “% increase weight (vs. control)” value was 185.2% and the “Mean Wet Weight” value turned out to be 45.0 mg. Besides, under setting [11], the “% increase weight (vs. control)” value was determined as 175.9% and the “Mean Wet Weight” value is 42.7 mg.

For `Cc1c(-c2ccc(O)cc2)n(Cc2ccc(OCCN3CCCCCC3)cc2)c2ccc(O)cc12` [TSE-424, 1-[4-(2-Azepan-1yl-ethoxy)-benzyl]-2-(4-hydroxy-phenyl)-3-methyl-1H-indol-5-ol], the “Effect on ethinyl estradiol induced uterine wet weight increase (in words)” value is listed as “reduced ethinyl estradiol induced wet weight increases to control values; also recorded: less than control values”, the “Effect on raloxifene induced uterine stimulation (in words)” value is recorded as “antagonized the uterine stimulation; also recorded: reduced the increased wet weight stimulated by raloxifene to the highest increase seen with TSE-424 alone”, the “Agonist effect” value was “neither ERA-923 nor TSE-424 statistically increased uterine wet weight; also recorded: neither ERA-923 (Experiment No.1) nor TSE-424 (Experiment No. 3) treatments resulted in a statistical increase in uterine wet weight” and the “Increase in uterine wet weight over control” value is 35%. Besides, under setting [12], the “% increase weight (vs. control)” value stood at 92.4% and the “Mean Wet Weight” value stood at 33.2 mg. Besides, under setting [13], the “% increase weight (vs. control)” value came out at 77.7% and the “Mean Wet Weight” value stood at 27.9 mg. Under setting [14], the “% increase weight (vs. control)” value is recorded as 81.9% and the “Mean Wet Weight” value was 29.4 mg. In addition, under setting [15], the “% increase weight (vs. control)” value came out at 170.4% and the “Mean Wet Weight” value was 41.4 mg. In addition, under setting [16], the “% increase weight (vs. control)” value is reported as 142% and the “Mean Wet Weight” value amounted to 34.5 mg. For the same compound, under setting [10], the “% increase weight (vs. control)” value amounted to 135.0% and the “Mean Wet Weight” value came to 32.7 mg. Under setting [17], the “% increase weight (vs. control)” value is on record as 139.3% and the “Mean Wet Weight” value was determined as 33.8 mg. In addition, under setting [18], the “% increase weight (vs. control)” value is recorded as 136.5% and the “Mean Wet Weight” value is 33.2 mg. Under setting [11], the “% increase weight (vs. control)” value is on record as 109.4% and the “Mean Wet Weight” value came out at 26.6 mg.

The values are drawn from patent publication US20020028805A1, “Methods of inhibiting uterotrophic effects of estrogenic agents” (American Home Products Corporation, priority 2000, published 2002).
